Experimental data taken from PubChem BioAssay AID2060600 (Molecular Pharmacology Branch, DTP, NCI, 2025).

Tested on: 996289-038-R-J1-PDC complex spheroid viability
Test: Anticancer human tumor 996289-038-R-J1-PDC patient-derived colon adenocarcinoma cell line growth inhibition [CLK]
Settings: for IC50: curve of first compound; for viability, T/C: stronger effect = lower value
Excerpt: A high-throughput screen of multi-cell type tumor spheroids was designed to identify active combinations of […] and targeted small molecules. Complex spheroids include a stromal component modeled by human endothelial cells (HUVEC) and fibroblasts modeled by human mesenchymal stem cells (MSCs). The concentration ranges selected for each drug and investigational agent were based upon clinically achievable concentrations if the clinical Cmax of the agent was known.
Compounds. The drugs and investigational agents: cirtuvivint (SM08502; NSC835563), CC-671 (NSC850746), vemurafenib (NSC761431), tapotoclax (NSC804041), sotorasib (NSC818433), adagrasib (NSC831453), MRTX-1133 (NSC836407), BAY2416964 (NSC825713), copanlisib (NSC816437), inavolisib (NSC800729), abemaciclib (NSC768073), osimertinib (NSC779217), entinostat (NSC756642), eltanexor (KPT-8602, NSC794443), venetoclax (NSC766270), ceralasertib (NSC777638), bortezomib (NSC756655), olaparib (NSC753686), talazoparib (NSC767125), alisertib (NSC759677), peposertib (NSC802822), gemcitabine (NSC613327), 5-fluorouracil (NSC19893), SN-38 (NSC673596), oxaliplatin (NSC266046), paclitaxel (NSC125973), and doxorubicin (NSC123127), were obtained from the National Cancer Institute (NCI) Developmental Therapeutics Program Chemical Repository. The FDA-approved anticancer drug set is available from the Developmental Therapeutics Program at https://dtp.cancer.gov/organization/dscb/obtaining/available plates.htm. […] The stock solutions were prepared in dimethyl sulfoxide (DMSO, Sigma-Aldrich, St. Louis, MO, cat. D2650), except for the platinum complexes which were prepared in saline (Quality Biological, Gaithersburg, MD, cat. 114-055-101), at 800-fold the tested concentration and stored at -70 degrees C prior to their use. All drugs and investigational agents were tested over a range starting from a high concentration at or near the clinical Cmax and decreasing in half-log increments. If the clinical Cmax for an agent had not been determined, the highest concentration tested was 10 microM.
Cell Culture. All cells were maintained in an incubator at 37 degrees C and 5% CO2 with 95% humidity. The PDC lines were cultured according to standard operating procedures established by the NCI PDMR. Briefly, all PDCs were thawed and cultured in Matrigel-coated flasks prepared with a working solution of 1X Ham's F-12 nutrient mix, without supplementation (Invitrogen, Waltham, MA, cat. 11765054), 100 U/mL penicillin-streptomycin (Invitrogen, cat. 15140122), and 2.5% Matrigel (Corning Inc., Corning, NY, cat. 354248) for the first three passages. The 947758-054-R-J2-PDC line was cultured in 6B/Colon 1A media, which includes advanced DMEM/F-12 (Thermo Fisher Scientific, cat. 12634028), 10 mM HEPES (Thermo Fisher Scientific, cat. 15630080), 1X GlutaMAX supplement (Thermo Fisher Scientific, cat. 35050061), 0.1 mg/mL primocin (InvivoGen, cat. ant-pm-2), 10% defined fetal bovine serum, heat inactivated (HyClone Laboratories Inc., cat. SH30070.03HI), 1.25 mM N-Acetyl-L-cysteine (Sigma-Aldrich, cat. A9165), 10 mM nicotinamide (Sigma-Aldrich, cat. N0636), 1X B-27 supplement (Thermo Fisher Scientific, cat. 17504044), 1X N-2 supplement (Thermo Fisher Scientific, cat. 17502048), and 10 microM Y-27632 dihydrochloride (Tocris Bioscience, cat. 1254). The 876862-298-R-J1-PDC was cultured in 6E media, which includes all 6B/Colon 1A media components plus 50% L-WRN conditioned media (ATCC, cat. CRL-3276), 50 ng/mL recombinant human EGF recombinant protein (hEGF; Thermo Fisher Scientific, cat. PHG0311), 10 ng/mL recombinant human fibroblast growth factor 10 (hGFG-10; PeproTech, cat. 100-26), 1 ng/mL recombinant human fibroblast growth factor 2 (hFGF-2; PeproTech, cat. 100-18B), and 1 µM prostaglandin E2 (PGE2; Tocris, cat. 2296). The 227483-062-R1-J1-PDC line was cultured in Panc media, containing all 6E components except hFGF-2, with the addition of 500 nM SB-431542 (Selleckchem, cat. S1067) and 10 nM gastrin (Tocris, cat. 3006). […]
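Note: spheroids exposed to the agents for 7 days before readout.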

For `COC1C=CCC(C)C(C)S(=O)(=O)NC(=O)c2ccc3c(c2)N(CC2CCC21)CC1(CCCc2cc(Cl)ccc21)CO3` (configuration not stated) + CN1CCN(c2cc(C(=O)Nc3cc4cc(-c5cnn(C)c5)ccc4cn3)ccn2)CC1, the IC50 (second compound 0.0316 µM) was 4.53 µM, the IC50 (second compound 0.1 µM) was 2.78 µM and the IC50 (second compound 0.316 µM) was 1.47 µM. The IC50 (second compound 1 µM) was under 0.0316 µM, the IC50 (second compound 3.16 µM) was under 0.0316 µM and the IC50 (second compound 10 µM) was under 0.0316 µM. It also gave a viability, T/C (second compound 0.0316 µM, first compound 0.0316 µM) of 98.8%, a viability, T/C (second compound 0.0316 µM, first compound 0.1 µM) of 106% and a viability, T/C (second compound 0.0316 µM, first compound 0.316 µM) of 96.2%. It also gave a viability, T/C (second compound 0.0316 µM, first compound 1 µM) of 79.5%, a viability, T/C (second compound 0.0316 µM, first compound 3.16 µM) of 60.4% and a viability, T/C (second compound 0.0316 µM, first compound 10 µM) of 30.1%. For the same molecule, the viability, T/C (second compound 0.1 µM, first compound 0.0316 µM) was 93.3%, the viability, T/C (second compound 0.1 µM, first compound 0.1 µM) was 86.1% and the viability, T/C (second compound 0.1 µM, first compound 0.316 µM) was 78.8%. For the same molecule, the viability, T/C (second compound 0.1 µM, first compound 1 µM) was 78%, the viability, T/C (second compound 0.1 µM, first compound 3.16 µM) was 45.6% and the viability, T/C (second compound 0.1 µM, first compound 10 µM) was 27.7%. The viability, T/C (second compound 0.316 µM, first compound 0.0316 µM) was 60.6%, the viability, T/C (second compound 0.316 µM, first compound 0.1 µM) was 74.7% and the viability, T/C (second compound 0.316 µM, first compound 0.316 µM) was 63.6%. It also gave a viability, T/C (second compound 0.316 µM, first compound 1 µM) of 53.9%, a viability, T/C (second compound 0.316 µM, first compound 3.16 µM) of 39.6% and a viability, T/C (second compound 0.316 µM, first compound 10 µM) of 21%. For the same molecule, the viability, T/C (second compound 1 µM, first compound 0.0316 µM) was 7.76%, the viability, T/C (second compound 1 µM, first compound 0.1 µM) was 8.39% and the viability, T/C (second compound 1 µM, first compound 0.316 µM) was 6.69%. For the same molecule, the viability, T/C (second compound 1 µM, first compound 1 µM) was 4.97%, the viability, T/C (second compound 1 µM, first compound 3.16 µM) was 4.86% and the viability, T/C (second compound 1 µM, first compound 10 µM) was 2.21%. It also gave a viability, T/C (second compound 3.16 µM, first compound 0.0316 µM) of 1.75%, a viability, T/C (second compound 3.16 µM, first compound 0.1 µM) of 0.92% and a viability, T/C (second compound 3.16 µM, first compound 0.316 µM) of 1.25%. For the same molecule, the viability, T/C (second compound 3.16 µM, first compound 1 µM) was 1.45%, the viability, T/C (second compound 3.16 µM, first compound 3.16 µM) was 1.53% and the viability, T/C (second compound 3.16 µM, first compound 10 µM) was 0.93%. The viability, T/C (second compound 10 µM, first compound 0.0316 µM) was 1.98%, the viability, T/C (second compound 10 µM, first compound 0.1 µM) was 1.21% and the viability, T/C (second compound 10 µM, first compound 0.316 µM) was 0.68%. It also gave a viability, T/C (second compound 10 µM, first compound 1 µM) of 0.74%, a viability, T/C (second compound 10 µM, first compound 3.16 µM) of 0.47% and a viability, T/C (second compound 10 µM, first compound 10 µM) of 1.7%.
